According to US12583848B2, “Isoxazole-3-carboxamide derivatives and their use for treatment of diseases caused by virus infection” (Collaborations Pharmaceuticals, Inc., priority 2019, dated 2026):
Values after ≈ are worked out from the molar mass of the structure shown. Values joined by “and” are separate entries in the source; they are usually repeats but may differ in a detail not shown here. Equal values may be shown once. Read-outs that look alike come from different tables or passages of the source.

Legend:
Caco-2 = assay: Cell permeability (Caco-2); format: in vitro ADME; details: concluded from Caco-2 efflux
Procedure: (§1) In vitro ADME studies were performed on compound 8. Cell permeability (Caco-2) results were as follows: Apical (A) to (Basolateral) B 8.8×10^−4 cm/s; […]

[1] = Cell permeability (Caco-2); format: in vitro ADME; details: human, Caco-2
Procedure: as §1

[2] = tested on: CVB3 97927-I1207T (pleconaril-resistant variant); format: cell-based, coxsackievirus B3
Solubility = format: physicochemical; details: pH 7.4, aqueous buffer
Procedure: (§2) In vitro ADME studies were performed on compound 8.

rhinovirus B14 (RV-B14) = assay: organism not typed; format: cell-based; details: HeLa, 72 h, read-out: IC50 against Rhinoviruses (RV) RV-B14
Protein binding, mouse = format: in vitro ADME
Procedure: as §2

[3] = Microsomal stability, human liver microsomes; format: in vitro ADME
Procedure: as §2

[4] = tested on: CVB3 97927-I1207K (pleconaril-resistant variant); format: cell-based, coxsackievirus B3
[5] = tested on: Enterovirus 68 (strain US/KY/14-18953); assay: microbe, parasite or virus in culture; format: cell-based; set-up: SI50: unit not given beside the values
[6] = tested on: polio virus-1 (strain Mahoney); assay: organism not typed; format: cell-based; set-up: SI50: unit not given beside the values
[7] = tested on: enterovirus 71 (strain Tainan/4643/98); assay: microbe, parasite or virus in culture; format: cell-based; set-up: SI50: unit not given beside the values
[8] = tested on: viruses resistant to pleconaril; assay: Inhibition of replication of a broad spectrum of EV in vitro; format: cell-based; details: read-out: IC50 values for viruses resistant to pleconaril
mouse-adapted EV D68 = assay: microbe, parasite or virus in culture; format: cell-based; set-up: SI50: unit not given beside the values
[9] = mouse, in vivo, po
Protein binding, human = format: in vitro ADME
Procedure: as §2

[10] = Pharmacokinetic study in mice; format: in vivo, white BALB/c male mice
Procedure: The pharmacokinetics of the compound 8 has been studied in white BALB/c male mice. 22 animals with average body weight of 20 g were selected for the study. Before the experiment the animals were kept on standard vivarium ration with dry pelleted feed. All the test animals had free access to water but were deprived of food for 1 hour before administration of the compound. This regimen was continued for another hour after the administration. […] The animals were euthanized by decapitation for blood sampling. […] Blood was collected in heparinized tubes and centrifuged at 3500 RPM. Plasma was separated from formed elements and immediately frozen at -20° C. in freezer. This storage continued before transferring of plasma for analysis. Serum from 6 untreated animals was used as control and for equipment calibration with compound. Mice brain was immediately frozen at -120° C. Plasma separation: […] Sample preparation: A mixture of 50 μL of plasma and 150 μL of MeCN by intensive shaking (Vortex) for 30 sec. Centrifugation 14000 g for 4 min. […] See also FIG. 1.

cytochrome P450 = assay: Effect on cytochrome P450 enzyme activity; format: in vitro ADME
[11] = tested on: Enterovirus D68 (EV-D68 MP30 PP); format: in vivo, AG129 mice; details: for weight loss (percentage of initial body weight) following infection: 100 mg/kg/d PO, EV-D68 infected AG129 mice, days 1-5
[12] = tested on: influenza A virus, subtype H1N1 (strain California/07/2009); assay: microbe, parasite or virus in culture; format: cell-based; set-up: SI50: unit not given beside the values
[13] = Microsomal stability, mouse liver microsomes; format: in vitro ADME
Procedure: as §2

rhinovirus B5 (RV-B5) = assay: organism not typed; format: cell-based; details: HeLa cells, CPE inhibition, 72 hours; n.a. = not active; read-out: IC50 against Rhinoviruses (RV) RV-B5
[14] = tested on: CVB3 97927-I1207M (pleconaril-resistant variant); format: cell-based, coxsackievirus B3
CYP3A4 = details: for CYP3A4 induction, % of control: control = rifampicin; for CYP3A4 induction (fold): cryopreserved hepatocytes, midazolam substrate
HeLa cells = details: human
PXR = PXR (Homo sapiens, UniProt O75469); assay: biochemical
rhinovirus A2 (RV-A2) = assay: organism not typed; format: cell-based; details: HeLa, 72 h, read-out: IC50 against Rhinoviruses (RV) RV-A2
[15] = read-out: Protein binding, bound (converted)
[16] = mice, 100 mg/kg intragastric, plasma

Chain of PXR (O75469 111-434 limits assumed): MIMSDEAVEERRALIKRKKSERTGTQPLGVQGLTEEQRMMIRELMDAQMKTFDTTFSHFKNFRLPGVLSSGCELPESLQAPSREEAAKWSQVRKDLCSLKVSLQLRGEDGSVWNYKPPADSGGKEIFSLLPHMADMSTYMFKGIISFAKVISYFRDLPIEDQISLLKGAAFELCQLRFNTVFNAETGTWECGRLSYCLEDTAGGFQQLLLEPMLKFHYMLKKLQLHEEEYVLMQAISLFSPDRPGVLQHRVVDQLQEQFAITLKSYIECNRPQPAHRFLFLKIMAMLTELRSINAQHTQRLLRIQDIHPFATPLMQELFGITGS

## Cc1cc(-c2noc(C(F)(F)F)n2)ccc1OCCCc1cc(C(=O)N(C)C)no1 [Compound 8, N,N-dimethyl-5-(3-{2-methyl-4-[5-(trifluoromethyl)-1,2,4-oxadiazol-3-yl]phenoxy}propyl)isoxazole-3-carboxamide]
Caco-2
  P-gp substrate: likely P-gp substrate
[1]
  efflux ratio: 3.5
Escherichia coli PQ37
  Mutagenicity: NO
[2]
  IC50: 10 nM
Solubility
  solubility: 0.11 µM (≈ 0.0467 µg/mL)
Rhinovirus B14 (RV-B14)
  IC50: 70 nM
Protein binding, mouse
  Protein binding, stability: 88.1%
Protein binding, mouse; [15]
  fraction unbound: 0.002
[3]
  half-life: 55.3 min
  microsomal CLint: 25.1 µL/min/mg
[4]
  IC50: 3670 nM
[5]
  SI50: >520
[5]; Enterovirus D
  EC50: 18 nM
[6]
  SI50: 11
[6]; Vero 76
  EC50: 320 nM
[7]
  SI50: 24
[7]; Enterovirus A, Vero 76
  EC50: 940 nM
[8]
  IC50: 40 to 640 nM
mouse-adapted EV D68
  SI50: 173
mouse-adapted EV D68; Enterovirus D, EVD68
  EC50: 23 nM
[9]
  Maximum tolerated dose (MTD): at least 100 milligrams per kilogram body weight per day
Protein binding, human
  Protein binding, stability: 93.9%
Protein binding, human; [15]
  fraction unbound: 0.003
[10]; 0.50 hours, individual mice, 100 mg/kg intragastric, 100 mg/kg
  Concentration in mice plasma: 963.29 ng/mL and 2031.52 ng/mL and 1979.28 ng/mL and 2114.06 ng/mL and 1464.12 ng/mL
[10]; 1 hour, individual mice, 100 mg/kg intragastric, 100 mg/kg
  Concentration in mice plasma: 660.65 ng/mL and 1138.34 ng/mL
[10]; 2 hours, individual mice, 100 mg/kg intragastric, 100 mg/kg
  Concentration in mice plasma: 667.90 ng/mL and 379.89 ng/mL and 461.99 ng/mL
[10]; 3 hours, individual mice, 100 mg/kg intragastric, 100 mg/kg
  Concentration in mice plasma: 344.86 ng/mL and 107.10 ng/mL and 403.55 ng/mL
[10]; 5 hours, individual mice, 100 mg/kg intragastric, 100 mg/kg
  Concentration in mice plasma: 228.15 ng/mL and 74.82 ng/mL and 147.00 ng/mL
[10]; 7 hours, individual mice, 100 mg/kg intragastric, 100 mg/kg
  Concentration in mice plasma: 90.82 ng/mL and 44.49 ng/mL and 13.49 ng/mL and 45.70 ng/mL
[10]; male, BALB/c, mouse, plasma, oral, 100 mg/kg, 0.50 hours, 100 mg/kg intragastric
  concentration at 0.5 h: 1710 ng/mL
[10]; male, BALB/c, mouse, plasma, oral, 100 mg/kg, 1 hour, 100 mg/kg intragastric, read-out: Concentration in mice plasma, Average
  concentration at 1 h: 966 ng/mL
[10]; male, BALB/c, mouse, plasma, oral, 100 mg/kg, 1 hour, individual mice, 100 mg/kg intragastric, read-out: Concentration in mice plasma
  concentration at 1 h: 1100 ng/mL
[10]; male, BALB/c, mouse, plasma, oral, 100 mg/kg, 2 hours, 100 mg/kg intragastric, read-out: Concentration in mice plasma, Average
  concentration at 2 h: 536 ng/mL
[10]; male, BALB/c, mouse, plasma, oral, 100 mg/kg, 2 hours, individual mice, 100 mg/kg intragastric, read-out: Concentration in mice plasma
  concentration at 2 h: 634 ng/mL
[10]; male, BALB/c, mouse, plasma, oral, 100 mg/kg, 3 hours, 100 mg/kg intragastric
  concentration at 3 h: 285 ng/mL
[10]; male, BALB/c, mouse, plasma, oral, 100 mg/kg, 5 hours, 100 mg/kg intragastric
  concentration at 5 h: 124 ng/mL
[10]; male, BALB/c, mouse, plasma, oral, 100 mg/kg, 7 hours, 100 mg/kg intragastric
  concentration at 7 h: 49.6 ng/mL
[10]; male, BALB/c, mouse, po, mice, 100 mg/kg intragastric, plasma, read-out: AUC0-oo
  AUC: 3020 ng·h/mL
[10]; mice
  oral bioavailability: very high oral bioavailability
[10]; [16]
  CL: 0.66 L/h
  Cmax.: 1710.5 ± 489.2 ng/mL
  MRT: 129 min
  T1/2: 94.8 min
  Tmax.: 30 min
  Vd: 1.52 L
  kel: 0.4373 h⁻¹
Cytochrome P450
  effect on cytochrome P450 enzyme activity: without affecting cytochrome P450 enzyme activity
[11]
  weight loss (percentage of initial body weight) following infection: protected mice from weight loss
[11]; listed as compound 8
  weight loss (percentage of initial body weight) following infection: significant protection from weight loss
[11]; day 5 post-infection
  blood virus: No virus was detected
[12]
  SI50: 4.3
[12]; Influenza A virus, H1N1
  EC90: 4400 nM
[13]
  microsomal stability (verdict): unstable
[13]; read-out: half-life (t1/2)
  half-life: 19.6 min
[13]; read-out: intrinsic clearance (CLint)
  microsomal CLint: 70.6 µL/min/mg
Rhinovirus B5 (RV-B5)
  IC50: 2260 nM
[14]
  IC50: 4 nM
CYP3A4; 1 μM
  CYP3A4 induction, % of control: 3 % of control
  CYP3A4 induction (fold): 1.2 ×
CYP3A4; 10 μM
  CYP3A4 induction, % of control: 7 % of control
  CYP3A4 induction (fold): 1.4 ×
HeLa cells
  CC50: 13400 nM
PXR
  IC50: > 100000 nM
Rhinovirus A2 (RV-A2)
  IC50: 410 nM
